Residues, ends and D or L forms follow the SMILES beside them. No end group written: not given here. *: point of attachment. For = O=C*
How the values were obtained:
[1] = target: SspA protease (Staphylococcus aureus, UniProt P0C1U8); assay: SspA protease treatment with HPLC/MS analysis; assay type: in vitro ADME; settings: peptide 45 μL at 10 mg/mL + SspA 5 μL at 2 mg/mL, 100 mM HEPES pH 7.8, 37°C, 5 h
Procedure: SspA protease was resuspended at 2 mg/mL in 100 mM HEPES (pH 7.8). Peptide samples (45 μL at 10 mg/mL) were mixed with SspA (5 μL at 2 mg/mL) and incubated at 37°C for a total of 5 h. The antimicrobial activities of the reaction mixtures were assayed by spotting 5 μL (∼45 μg) of each on either M. luteus or S. aureus test organisms as described above. Additional samples were flash frozen in liquid nitrogen and stored at −80°C prior to high-pressure liquid chromatography-mass spectrometry (HPLC/MS) analysis.
HPLC/MS analyses were conducted to assess the proteolytic cleavage of STIPs by the SspA protease and catalogue peptides in the reaction mixtures. An Agilent Infinity II 1260 HPLC outfitted with a Phenomenex Lune C5 column (4.6 by 150 mm, 5 μm) was used to separate the peptide fragments using a binary solvent system consisting of solvent A (water, 0.05% formic acid) and solvent B (acetonitrile, 0.05% formic acid) operating at 0.7 mL/min. A 5-μL volume (∼4.5 μg) of each sample was injected at 10% solvent B, followed by a two-step gradient elution from 10% to 50% solvent B in 30 min, then 50% to 100% B in 10 min. The HPLC was coupled to an Advion CMS(L) single quadrupole mass detector through an electrospray ionization source, and ions were detected between 100 and 2,000 m/z. Low temperature and fragmentation settings were used: capillary temperature 135°C, capillary voltage 120 V, source voltage offset 20 V, source gas temperature 135°C, and electrospray ionization (ESI) voltage 3,500 V.

[2] = Circular dichroism spectroscopy; assay type: physicochemical; settings: for α-Helical content (%): CD, 50% TFE (vol/vol), peptide 0.2 mg/mL, room temperature
Procedure: Peptides were dissolved in ultrapure water or 50% TFE (vol/vol) at a concentration of 0.2 mg/mL for spectroscopy. Spectra of samples in a 1 mm pathlength quartz cuvette were recorded from 180 to 260 nm at 0.5 nm steps using an Applied Photophysics Chirascan Plus CD spectrophotometer operating at room temperature.

[3] = test system: MRSA ATCC BAA-1683; assay: MIC determination in broth; assay type: cell-based, Staphylococcus aureus; settings: cation-adjusted MH broth, 37°C, 16 h
Summary of the method: (§1)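 Peptides from the initial screen are tested as 2-fold dilution series against an inoculum of about 10^5 CFU/mL in cation-adjusted Mueller-Hinton medium, incubated at 37°C without agitation.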

[4] = test system: MRSA ATCC BAA-2313; assay: MIC determination in broth; assay type: cell-based, Staphylococcus aureus; settings: cation-adjusted MH broth, 37°C, 16 h
Summary of the method: as §1

[5] = test system: MRSA ATCC BAA-41; assay: MIC determination in broth; assay type: cell-based, Staphylococcus aureus; settings: cation-adjusted MH broth, 37°C, 16 h
Summary of the method: as §1

[6] = test system: MRSA ATCC BAA-2094; assay: MIC determination in broth; assay type: cell-based, Staphylococcus aureus; settings: cation-adjusted MH broth, 37°C, 16 h
Summary of the method: as §1

[7] = test system: S. aureus ATCC 29213; assay: MIC determination in broth; assay type: cell-based, Staphylococcus aureus; settings: cation-adjusted MH broth, 37°C, 16 h
Summary of the method: as §1

[8] = test system: MRSA ATCC BAA-42; assay: MIC determination in broth; assay type: cell-based, Staphylococcus aureus; settings: cation-adjusted MH broth, 37°C, 16 h
Summary of the method: as §1

[9] = test system: MRSA ATCC 33592; assay: MIC determination in broth; assay type: cell-based, Staphylococcus aureus; settings: cation-adjusted MH broth, 37°C, 16 h
Summary of the method: as §1

[10] = test system: MRSA ATCC BAA-44; assay: MIC determination in broth; assay type: cell-based, Staphylococcus aureus; settings: cation-adjusted MH broth, 37°C, 16 h
Summary of the method: as §1

[11] = test system: sheep red blood cells; assay: Hemolytic activity assay; assay type: cell-based; settings: peptides at 100 μg/mL, 1 h, relative to the δ-toxin and other STIPs
Procedure: Thirty-five percent defibrinated sheep’s blood (vol/vol) was centrifuged for 5 min at 4,000 rpm to harvest red blood cells. The cells were washed three times with PBS and harvested by centrifugation prior to dilution to 15% (vol/vol) in PBS in order to evaluate peptide-mediated hemolysis. The assay was performed in 96-well microtiter plates using peptides at 100 μg/mL in a 200-μL volume. […] was used as a negative control and Triton X-100 (0.1% vol/vol) was used as a positive control for complete lysis. After 1 h of incubation, the 96-well microtiter plates were centrifuged at 4,500 rpm for 10 min and a 150 μL aliquot of the supernatant from each sample was carefully transferred to a new 96-well plate. The absorbance of the supernatant was then measured at 540 nm using a Varioskan Lux plate reader (Thermo Scientific). The hemolytic activity is reported relative to complete lysis (%) obtained using Triton X-100. Experiments were performed in triplicate, and statistical differences in hemolysis were measured using an unpaired two-tailed Student’s t test to compare the STIPs and deformylated δ-toxin to the formylated δ-toxin.

[12] = test system: HeLa (ATCC CCL-2) cells; assay: HeLa cytotoxicity, alamarBlue; assay type: cell-based, human; settings: monolayers, 3.13 to 200 μg/mL, 24 h, alamarBlue fluorescence; estimated
Procedure: Cytotoxicity was measured using the 3D EpiDerm skin tissues and HeLa (ATCC CCL-2) cells using a fluorescent reporter of cell viability, alamarBlue (ThermoFisher Scientific). 3D EpiDerm skin tissues (MatTek EPI-200-AFAB) were transferred to a 12-well plate containing 600 μL of AFAB-assay medium supplemented with 10% vol/vol alamarBlue. […] HeLa cells were seeded in a 96-well plate at 2 × 10^4 cells/per well and incubated overnight at 37°C in a humidified 5% CO2 environment to prepare wells at ∼50% confluence for treatments after spent Dulbecco’s modified Eagle’s medium (DMEM) was removed and cells were washed with PBS. Assays were then performed using phenol red-free DMEM supplement with 9% vol/vol alamarBlue and peptide concentrations varying from 3.13 to 200 μg/mL. After a 24 h incubation period, alamarBlue fluorescence emission was measured at 590 nm upon excitation at 560 nm using Varioskan Lux plate reader (Thermo Scientific). Fluorescence intensities of treated cultures were normalized to measurement made for untreated control samples. Experimental data sets were fit to nonlinear dose-response curves to determine IC50 values using Origin 2019.

[13] = test system: S. aureus; assay: MIC of STIP3-1 alanine variants in liquid broth; assay type: cell-based, Staphylococcus aureus; settings: Table S4; maximum concentration tested 200 μg/mL; strain not given
Procedure: The MICs were measured for bioactive peptides identified from the initial screen. […] […] Plates were incubated without shaking at 30 or 37°C depending on the organism.

[14] = test system: M. luteus ATCC 4698; assay: MIC determination in broth; assay type: cell-based, Micrococcus luteus; settings: cation-adjusted MH broth, ~10^5 CFU/mL, 30°C, 48 h
Procedure: M. luteus ATCC 4698, S. aureus ATCC 29213, a panel of 7 MRSA (ATCC MP-2) strains, which includes ATCC BAA-41, BAA-42, BAA-44, BAA-1683, BAA-2094, BAA-2313, and 33592, and a series of additional bacterial isolates from human and veterinary cases were used in this study (Table S6). Bacterial strains were routinely grown in lysogeny broth (LB: 10 g/L tryptone, 5 g/L yeast extract, 10 g/L NaCl) at 30°C (M. luteus) or 37°C (Staphylococcus spp.) prior to use in specific experiments described below.
The MICs were measured for bioactive peptides identified from the initial screen. Cation-adjusted Mueller-Hinton (MH) broth was used as the growth medium for MIC determination experiments. Bacterial cultures were diluted to an OD of 5 × 10^−4 (∼10^5 CFU/mL) in 200 μL MH broth mixed with peptides in a 2-fold dilution series arrayed in 96-well plates. Plates were incubated without shaking at 30 or 37°C depending on the organism.

[15] = δ-toxins, highest conc. tested 200 μg/mL
[16] = STIP3 variants, highest conc. tested 100 μg/mL, ~10^5 CFU/mL, 2-fold dilution series

Chain of SspA protease (P0C1U8 69-336): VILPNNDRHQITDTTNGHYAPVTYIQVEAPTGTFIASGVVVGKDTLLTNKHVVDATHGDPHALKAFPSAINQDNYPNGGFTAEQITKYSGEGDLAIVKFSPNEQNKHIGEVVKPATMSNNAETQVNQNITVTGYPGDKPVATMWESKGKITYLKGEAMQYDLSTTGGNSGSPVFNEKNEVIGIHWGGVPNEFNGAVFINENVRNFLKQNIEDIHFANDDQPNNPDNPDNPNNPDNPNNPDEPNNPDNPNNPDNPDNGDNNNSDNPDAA

Molecule	Susceptibility to SspA cleavage [1]	α-Helical content (%) [2] [%]	MIC, S. aureus ATCC BAA 1683 (SCCmec IV) [3, 15]	MIC, S. aureus ATCC BAA 2313 (SCCmec XI) [4, 15]	MIC, S. aureus ATCC BAA 41 (SCCmec II) [5, 15]	MIC, S. aureus ATCC BAA 2094 (SCCmec V) [6, 15]	MIC, S. aureus ATCC 29213 [7, 15]	MIC, S. aureus ATCC BAA 42 (SCCmec VI) [8, 15]	MIC, S. aureus ATCC 33592 (SCCmec III) [9, 15]	MIC, S. aureus ATCC BAA 44 (SCCmec I) [10, 15]	further results
CC[C@H](C)[C@H](NC(=O)[C@H](Cc1c[nH]c2ccccc12)NC(=O)[C@H](CCCCN)NC(=O)[C@@H](NC(=O)[C@H](CC(C)C)NC(=O)CNC(=O)CNC(=O)[C@@H](NC(=O)[C@@H](NC(=O)[C@H](CCC(=O)O)NC(=O)[C@@H](NC(=O)[C@@H](NC(=O)[C@H](CC(=O)O)NC(=O)[C@H](CCCCN)NC(=O)[C@@H](NC(=O)[C@H](CCSC)NC=O)[C@@H](C)O)[C@@H](C)CC)C(C)C)[C@@H](C)O)C(C)C)C(C)C)C(=O)N[C@@H](CC(C)C)C(=O)N[C@@H](CC(=O)O)C(=O)N[C@H](C(=O)N[C@H](C(=O)N[C@@H](CCCCN)C(=O)N[C@@H](CCCCN)C(=O)N[C@@H](Cc1ccccc1)C(=O)N[C@@H](C)C(=O)O)C(C)C)[C@@H](C)O [δ-toxin] (For-MTKDIVETVGGLVKWILDTVKKFA-OH; C-terminus assumed)	no SspA cleavage was observed	88	> (no inhibition was observed at 100 μg/mL for the STIP3 variants or 200 μg/mL for the δ-toxins)	> (no inhibition was observed at 100 μg/mL for the STIP3 variants or 200 μg/mL for the δ-toxins)	> (no inhibition was observed at 100 μg/mL for the STIP3 variants or 200 μg/mL for the δ-toxins)	> (no inhibition was observed at 100 μg/mL for the STIP3 variants or 200 μg/mL for the δ-toxins)	> (no inhibition was observed at 100 μg/mL for the STIP3 variants or 200 μg/mL for the δ-toxins)	> (no inhibition was observed at 100 μg/mL for the STIP3 variants or 200 μg/mL for the δ-toxins)	> (no inhibition was observed at 100 μg/mL for the STIP3 variants or 200 μg/mL for the δ-toxins)	> (no inhibition was observed at 100 μg/mL for the STIP3 variants or 200 μg/mL for the δ-toxins)	Secondary structure by CD ([2]; water and 50% trifluoroethanol (vol/vol), 0.2 mg/mL): α-helical in both solvents
MTKDIVETVGGLVKWILDTVKKFA [δ-toxin (df), deformylated full-length S. auricularis δ-toxin, reference compound]	susceptible to SspA cleavage	87	> (no inhibition was observed at 100 μg/mL for the STIP3 variants or 200 μg/mL for the δ-toxins)	> (no inhibition was observed at 100 μg/mL for the STIP3 variants or 200 μg/mL for the δ-toxins)	> (no inhibition was observed at 100 μg/mL for the STIP3 variants or 200 μg/mL for the δ-toxins)	> (no inhibition was observed at 100 μg/mL for the STIP3 variants or 200 μg/mL for the δ-toxins)	> (no inhibition was observed at 100 μg/mL for the STIP3 variants or 200 μg/mL for the δ-toxins)	> (no inhibition was observed at 100 μg/mL for the STIP3 variants or 200 μg/mL for the δ-toxins)	> (no inhibition was observed at 100 μg/mL for the STIP3 variants or 200 μg/mL for the δ-toxins)	> (no inhibition was observed at 100 μg/mL for the STIP3 variants or 200 μg/mL for the δ-toxins)	–
TVGGLVKWILATVKKFA-NH2 [STIP3-28, rationally designed STIP3-1 variant, C-terminal amide]	–	–	–	–	–	–	–	–	–	–	MIC, S. aureus ATCC BAA 1683 (SCCmec IV) [3, 16]: 12.5 µg/mL; MIC, S. aureus ATCC BAA 2313 (SCCmec XI) [4, 16]: 12.5 µg/mL; MIC, S. aureus ATCC BAA 41 (SCCmec II) [5, 16]: 12.5 µg/mL; MIC, S. aureus ATCC BAA 2094 (SCCmec V) [6, 16]: 6.25 µg/mL; MIC, S. aureus ATCC 29213 [7, 16]: 25 µg/mL; MIC, S. aureus ATCC BAA 42 (SCCmec VI) [8, 16]: 12.5 µg/mL; MIC, S. aureus ATCC 33592 (SCCmec III) ([9]; Table S5, STIP3 variants, highest conc. tested 100 μg/mL, ~10^5 CFU/mL, 2-fold dilution series): 6.25 µg/mL; MIC, S. aureus ATCC BAA 44 (SCCmec I) [10, 16]: 12.5 µg/mL; Change of hemolytic activity [11]: increase in hemolysis
TVGGLVKWILDTVKKFA [STIP3-1]	further proteolysis can occur	–	–	–	–	–	–	–	–	–	IC50, HeLa cell survival [12]: 200 ± 30 µg/mL; MIC, S. aureus (alanine substituted STIP3-1, liquid broth) [13]: 100 µg/mL; MIC, M. luteus [14]: 12.5 µg/mL; MIC (μg/mL) for MRSA ATCC 33592 ([9]; Table 1 and text, ~10^5 CFU/mL): 100 µg/mL

— paper PMC8694143 (Microbiology Spectrum, 2021)
